Targets include Cytochrome P450 2C9 (Homo sapiens, UniProt P11712); Cytochrome P450 2D6 (Homo sapiens, UniProt P10635); Cytochrome P450 3A4 (Homo sapiens, UniProt P08684).
For data set [1], the target named is Heat shock protein HSP 90-alpha (Homo sapiens, UniProt P07900). Type of data set: functional, organism-based.
Data set [2] is described as follows: HEp-2 cell cytotoxicity, dose response, cytotoxicity control for RSV inhibitor project, HTS (AID 2410). The data set is classed as functional. The conditions noted are these: human respiratory syncytial virus.
Data set [3] deals with Voltage-gated inwardly rectifying potassium channel KCNH2 (Homo sapiens, UniProt Q12809). The note with it: Potency.
Another data set addresses T1, Phosphomannomutase 2 (Homo sapiens, UniProt O15305).
T1 sequence (O15305 whole entry): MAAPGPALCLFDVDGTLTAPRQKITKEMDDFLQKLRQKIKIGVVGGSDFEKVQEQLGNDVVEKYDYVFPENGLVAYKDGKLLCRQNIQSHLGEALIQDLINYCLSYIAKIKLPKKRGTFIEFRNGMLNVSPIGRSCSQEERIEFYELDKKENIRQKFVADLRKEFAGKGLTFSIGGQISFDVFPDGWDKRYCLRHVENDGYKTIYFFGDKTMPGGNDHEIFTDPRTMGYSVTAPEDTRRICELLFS
The experiment in a line: Counter screen SAR assay for PMM2 inhibitors via a fluorescence intensity assay. [Related pubchem assays (depositor defined):AID1545, AID1574].

Data set [4] concerns the target T2, Mannose-6-phosphate isomerase (Homo sapiens, UniProt P34949).
T2 sequence (P34949 whole entry): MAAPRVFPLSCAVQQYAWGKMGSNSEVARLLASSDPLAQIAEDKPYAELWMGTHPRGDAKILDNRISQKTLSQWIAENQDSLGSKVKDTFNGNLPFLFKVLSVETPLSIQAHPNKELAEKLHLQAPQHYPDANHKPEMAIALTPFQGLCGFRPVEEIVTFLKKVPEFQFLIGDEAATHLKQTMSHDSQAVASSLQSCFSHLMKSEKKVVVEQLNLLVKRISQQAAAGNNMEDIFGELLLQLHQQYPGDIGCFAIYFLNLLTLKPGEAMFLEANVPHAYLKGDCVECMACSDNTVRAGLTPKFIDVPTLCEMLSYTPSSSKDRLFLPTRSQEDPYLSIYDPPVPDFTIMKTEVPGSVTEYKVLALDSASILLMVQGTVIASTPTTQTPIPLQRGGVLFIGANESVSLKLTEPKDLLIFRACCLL
The experiment in a line: PMI enzyme inhibitors, confirmation, biochemical, fluorescence intensity (AID 1535).

The target of data set [5] is T3, Polyadenylate-binding protein 1 (Homo sapiens, UniProt P11940). In words: PABP1 MLLE–PAM2 binding inhibitor potency, dose response, biochemical, fluorescence polarization, FITC-PAM2 peptide (AID 602259). The data set is classed as functional. The note with it: read-out: IC50_Mean.
Data set [6] concerns the target T3, Polyadenylate-binding protein 1. In words: PABP1 MLLE–PAM2 interaction inhibitors, dose response, miRNA deadenylation inhibitor project, biochemical, fluorescence polarization, Cy5-PAM2 peptide, secondary (AID 602260). The data set is classed as functional. The conditions noted are these: read-out: IC50_Mean.
Data set [7] in a line: control 3'UTR Renilla luciferase suppression, dose response, counter-screen for Shn3 inhibitor project, cell-based, Clone20-Shn3RL, cherry-picked (AID 624133). Type of data set: functional.
A short description of data set [8]: Shn3 3'UTR reporter inhibitors, dose response, cell-based, Clone20 osteoblasts, firefly luciferase, cherry-picked (AID 624132).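 Further: firefly luciferase luminescence from reporter carrying the Shn3 3'UTR in osteoblasts.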 Type of data set: functional.
For data set [9], the system named is HEK293. In words: cells. The note with it: Homo sapiens.
The subject of data set [10] is HEK293. The experiment in a line: cells. The note with it: Homo sapiens. This is another data set of the same source.
Data set [11] in a line: HepG2 cell cytotoxicity, dose response, cytotoxicity control for Shn3 inhibitor project, CellTiter-Glo, cherry-picked (AID 624134). The data set is classed as functional, cell-based.
The next data set concerns the target T4, Cytochrome P450 1A2 (Homo sapiens, UniProt P05177).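 Further: PubChem cytochrome P450 panel assay, CYP1A2 panel member.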
T4 sequence (P05177 whole entry): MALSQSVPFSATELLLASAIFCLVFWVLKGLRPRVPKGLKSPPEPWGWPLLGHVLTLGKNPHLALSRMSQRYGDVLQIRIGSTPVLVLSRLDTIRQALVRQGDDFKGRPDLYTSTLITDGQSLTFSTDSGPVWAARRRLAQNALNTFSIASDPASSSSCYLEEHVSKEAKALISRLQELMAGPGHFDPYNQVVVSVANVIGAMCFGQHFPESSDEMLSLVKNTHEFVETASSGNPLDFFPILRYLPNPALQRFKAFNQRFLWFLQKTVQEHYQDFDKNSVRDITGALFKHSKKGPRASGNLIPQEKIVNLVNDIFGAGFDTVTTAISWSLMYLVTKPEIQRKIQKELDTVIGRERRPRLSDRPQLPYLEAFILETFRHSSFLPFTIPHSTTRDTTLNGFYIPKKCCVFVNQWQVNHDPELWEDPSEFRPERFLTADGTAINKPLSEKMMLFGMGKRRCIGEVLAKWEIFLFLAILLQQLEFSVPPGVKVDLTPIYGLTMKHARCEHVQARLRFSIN

In another data set the target is Cytochrome P450 2C19 (Homo sapiens, UniProt P33261). In words: Cytochrome panel assay with activity outcomes. Panel member name: p450-cyp2c19 Compounds with AC50 equal or less than 10 uM are considered active. Type of data set: functional. The conditions noted are these: read-out: AC50.
Data set [12] can be described thus: inhibitors of PGC1a acetylation in cells, dose response, cell-based, cherry-picked samples (AID 720514).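 Further: potency may reflect raised or lowered acetylation signal.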 The data set is classed as functional.
The next data set deals with INS1. The experiment in a line: beta cell apoptosis inhibitors, cytokine rescue, dose response, luminescence, retest (AID 449756).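 Further: cell death triggered by IL-1 beta plus TNF-alpha plus IFN-gamma mixture; protective hits raise ATP signal compared with cytokine alone wells.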 The data set is classed as functional, cell-based. The conditions noted are these: Rattus norvegicus.
Data set [13] concerns the target T5, Microphthalmia-associated transcription factor (Homo sapiens, UniProt O75030).
T5 sequence (O75030 whole entry): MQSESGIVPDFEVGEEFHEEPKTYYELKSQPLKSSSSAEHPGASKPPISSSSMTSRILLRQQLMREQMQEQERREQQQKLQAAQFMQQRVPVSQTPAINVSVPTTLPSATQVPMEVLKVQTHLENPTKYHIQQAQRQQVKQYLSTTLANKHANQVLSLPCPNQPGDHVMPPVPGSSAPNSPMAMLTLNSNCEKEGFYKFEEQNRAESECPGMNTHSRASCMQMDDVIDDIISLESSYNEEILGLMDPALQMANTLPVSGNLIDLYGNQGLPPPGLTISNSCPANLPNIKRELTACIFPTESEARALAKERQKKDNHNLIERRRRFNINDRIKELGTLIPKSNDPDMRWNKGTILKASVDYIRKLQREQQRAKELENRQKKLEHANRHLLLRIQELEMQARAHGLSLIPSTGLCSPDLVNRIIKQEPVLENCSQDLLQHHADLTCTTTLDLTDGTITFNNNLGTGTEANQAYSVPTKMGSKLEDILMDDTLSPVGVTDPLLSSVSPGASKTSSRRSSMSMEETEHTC
In words: TRPM1 promoter luciferase signal decrease, dose response, MITF inhibitor project, cell-based, SK-MEL-5, cherry-picked, set 3 (AID 493073).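 Further: SK-MEL-5 melanoma cells with luciferase driven by the MITF target TRPM1 promoter.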 The data set is classed as functional.

The next data set has as its system A-375. The experiment in a line: A375 melanoma cell viability reduction, dose response, counter-screen for MITF modulator project, cherry-pick samples, set 2 (AID 540335). The conditions noted are these: Homo sapiens. Type of data set: functional, cell-based.
Another data set concerns the target Beta-galactosidase (Escherichia coli, UniProt Q8VNN2). The experiment in a line: beta-galactosidase enzyme inhibitors and activators, dose response, artefact control for CCR6 antagonist project, biochemical, E. coli enzyme, set 3 (AID 504712). Type of data set: functional.
The subject of the next data set is Vero. In words: cells. The data set is classed as functional. The note with it: Chlorocebus sabaeus.

Calls of active or inactive are those of the source.

Consider eight molecules from ChEMBL document CHEMBL1201862, “PubChem BioAssay data set” (2004).

Chain of Cytochrome P450 2C9 (P11712 whole entry): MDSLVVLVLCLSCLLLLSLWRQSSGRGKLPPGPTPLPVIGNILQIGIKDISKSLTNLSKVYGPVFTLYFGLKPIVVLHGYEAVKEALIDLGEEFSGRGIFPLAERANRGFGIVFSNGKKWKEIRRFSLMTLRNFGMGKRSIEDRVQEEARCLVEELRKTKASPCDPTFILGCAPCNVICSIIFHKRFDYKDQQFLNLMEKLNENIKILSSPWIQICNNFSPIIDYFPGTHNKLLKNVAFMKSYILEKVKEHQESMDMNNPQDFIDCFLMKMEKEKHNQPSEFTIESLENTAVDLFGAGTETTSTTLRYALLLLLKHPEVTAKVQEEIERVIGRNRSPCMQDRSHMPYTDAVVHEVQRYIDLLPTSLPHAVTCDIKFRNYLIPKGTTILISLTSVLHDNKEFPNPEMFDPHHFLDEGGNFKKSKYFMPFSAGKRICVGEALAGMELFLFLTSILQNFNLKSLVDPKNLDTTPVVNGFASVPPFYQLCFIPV
T3 sequence (P11940 whole entry): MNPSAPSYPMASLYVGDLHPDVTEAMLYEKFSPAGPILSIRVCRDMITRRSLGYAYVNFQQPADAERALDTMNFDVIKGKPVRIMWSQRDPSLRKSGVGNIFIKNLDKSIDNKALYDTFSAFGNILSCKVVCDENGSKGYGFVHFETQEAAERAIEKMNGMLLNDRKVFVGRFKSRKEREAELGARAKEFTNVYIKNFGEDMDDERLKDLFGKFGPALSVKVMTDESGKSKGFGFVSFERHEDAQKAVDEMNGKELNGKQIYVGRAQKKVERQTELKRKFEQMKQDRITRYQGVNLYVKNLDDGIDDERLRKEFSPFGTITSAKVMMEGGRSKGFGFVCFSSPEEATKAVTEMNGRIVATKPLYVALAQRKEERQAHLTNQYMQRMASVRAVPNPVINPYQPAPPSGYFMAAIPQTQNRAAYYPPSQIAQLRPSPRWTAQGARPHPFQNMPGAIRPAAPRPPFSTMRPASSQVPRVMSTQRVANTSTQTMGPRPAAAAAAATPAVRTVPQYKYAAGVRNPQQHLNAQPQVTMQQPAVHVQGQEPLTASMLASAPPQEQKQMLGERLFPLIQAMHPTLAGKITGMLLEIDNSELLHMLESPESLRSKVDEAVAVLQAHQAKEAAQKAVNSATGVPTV
Chain of Voltage-gated inwardly rectifying potassium channel KCNH2 (Q12809 whole entry): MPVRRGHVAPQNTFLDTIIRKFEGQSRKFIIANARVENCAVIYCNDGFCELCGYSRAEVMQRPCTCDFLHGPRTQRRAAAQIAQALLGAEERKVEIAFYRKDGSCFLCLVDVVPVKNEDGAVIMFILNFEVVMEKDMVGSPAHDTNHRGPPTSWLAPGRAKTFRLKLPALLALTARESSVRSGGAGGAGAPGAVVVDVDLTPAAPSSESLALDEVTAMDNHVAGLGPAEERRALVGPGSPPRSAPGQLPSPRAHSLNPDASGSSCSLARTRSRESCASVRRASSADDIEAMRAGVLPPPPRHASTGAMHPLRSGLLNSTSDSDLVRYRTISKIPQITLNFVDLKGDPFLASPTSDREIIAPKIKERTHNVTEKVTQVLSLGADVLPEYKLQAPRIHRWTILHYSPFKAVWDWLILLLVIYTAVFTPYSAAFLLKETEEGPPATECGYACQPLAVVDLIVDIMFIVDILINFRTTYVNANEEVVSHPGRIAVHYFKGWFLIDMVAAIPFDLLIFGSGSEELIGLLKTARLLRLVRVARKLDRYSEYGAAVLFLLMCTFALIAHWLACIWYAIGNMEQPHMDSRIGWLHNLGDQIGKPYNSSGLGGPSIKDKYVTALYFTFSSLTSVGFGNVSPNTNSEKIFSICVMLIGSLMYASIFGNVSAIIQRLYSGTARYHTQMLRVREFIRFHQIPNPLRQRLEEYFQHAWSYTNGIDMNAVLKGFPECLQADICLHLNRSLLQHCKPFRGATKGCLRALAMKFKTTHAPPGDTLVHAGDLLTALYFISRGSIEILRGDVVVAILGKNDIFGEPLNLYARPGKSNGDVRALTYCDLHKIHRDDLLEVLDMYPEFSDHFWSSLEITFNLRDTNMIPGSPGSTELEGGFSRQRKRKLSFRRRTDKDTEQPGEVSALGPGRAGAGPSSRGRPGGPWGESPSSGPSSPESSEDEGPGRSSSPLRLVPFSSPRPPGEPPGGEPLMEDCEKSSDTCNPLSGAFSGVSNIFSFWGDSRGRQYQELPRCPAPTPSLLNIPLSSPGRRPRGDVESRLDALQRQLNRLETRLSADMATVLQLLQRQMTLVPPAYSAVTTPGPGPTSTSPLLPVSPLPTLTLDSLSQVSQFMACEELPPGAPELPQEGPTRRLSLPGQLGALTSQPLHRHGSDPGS
Chain of Cytochrome P450 2D6 (P10635 whole entry): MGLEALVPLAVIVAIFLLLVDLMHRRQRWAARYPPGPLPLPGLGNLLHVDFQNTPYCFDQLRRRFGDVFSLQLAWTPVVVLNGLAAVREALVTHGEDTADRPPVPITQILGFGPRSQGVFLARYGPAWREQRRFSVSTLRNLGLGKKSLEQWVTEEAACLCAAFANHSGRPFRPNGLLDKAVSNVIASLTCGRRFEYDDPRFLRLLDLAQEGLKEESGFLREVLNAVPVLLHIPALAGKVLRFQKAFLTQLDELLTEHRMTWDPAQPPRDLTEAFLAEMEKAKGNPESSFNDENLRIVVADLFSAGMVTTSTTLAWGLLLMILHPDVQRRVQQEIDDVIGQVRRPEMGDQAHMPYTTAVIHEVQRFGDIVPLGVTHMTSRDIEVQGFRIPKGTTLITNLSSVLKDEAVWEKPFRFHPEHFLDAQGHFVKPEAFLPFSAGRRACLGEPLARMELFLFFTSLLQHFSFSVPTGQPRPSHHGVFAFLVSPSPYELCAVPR
Chain of Cytochrome P450 2C19 (P33261 whole entry): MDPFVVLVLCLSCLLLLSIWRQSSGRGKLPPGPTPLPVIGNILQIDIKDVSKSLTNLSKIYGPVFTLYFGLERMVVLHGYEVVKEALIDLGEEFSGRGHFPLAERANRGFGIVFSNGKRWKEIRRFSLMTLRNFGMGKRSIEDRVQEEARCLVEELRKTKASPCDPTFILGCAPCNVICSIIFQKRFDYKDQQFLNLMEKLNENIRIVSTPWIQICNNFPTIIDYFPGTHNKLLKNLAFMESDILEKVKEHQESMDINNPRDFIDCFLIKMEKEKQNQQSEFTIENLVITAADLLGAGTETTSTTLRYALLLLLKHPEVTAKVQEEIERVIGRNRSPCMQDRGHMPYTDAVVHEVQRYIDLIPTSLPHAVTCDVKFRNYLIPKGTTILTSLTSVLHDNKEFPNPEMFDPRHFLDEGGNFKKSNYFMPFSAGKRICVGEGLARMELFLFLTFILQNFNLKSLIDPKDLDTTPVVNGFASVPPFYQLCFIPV
Chain of Cytochrome P450 3A4 (P08684 whole entry): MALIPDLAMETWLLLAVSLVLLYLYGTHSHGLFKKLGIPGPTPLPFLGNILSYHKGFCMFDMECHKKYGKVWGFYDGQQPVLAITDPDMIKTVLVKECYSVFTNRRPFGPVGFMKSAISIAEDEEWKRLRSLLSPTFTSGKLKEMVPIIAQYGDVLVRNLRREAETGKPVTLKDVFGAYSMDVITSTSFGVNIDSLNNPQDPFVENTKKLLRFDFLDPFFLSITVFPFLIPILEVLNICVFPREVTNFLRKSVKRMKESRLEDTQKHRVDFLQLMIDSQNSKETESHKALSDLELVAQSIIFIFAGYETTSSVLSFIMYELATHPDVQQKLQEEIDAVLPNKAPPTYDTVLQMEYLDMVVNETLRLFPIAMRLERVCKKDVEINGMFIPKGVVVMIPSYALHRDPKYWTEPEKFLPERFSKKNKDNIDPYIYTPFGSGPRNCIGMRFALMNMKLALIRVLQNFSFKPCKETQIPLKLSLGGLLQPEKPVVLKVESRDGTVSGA
Chain of Beta-galactosidase (Q8VNN2 whole entry): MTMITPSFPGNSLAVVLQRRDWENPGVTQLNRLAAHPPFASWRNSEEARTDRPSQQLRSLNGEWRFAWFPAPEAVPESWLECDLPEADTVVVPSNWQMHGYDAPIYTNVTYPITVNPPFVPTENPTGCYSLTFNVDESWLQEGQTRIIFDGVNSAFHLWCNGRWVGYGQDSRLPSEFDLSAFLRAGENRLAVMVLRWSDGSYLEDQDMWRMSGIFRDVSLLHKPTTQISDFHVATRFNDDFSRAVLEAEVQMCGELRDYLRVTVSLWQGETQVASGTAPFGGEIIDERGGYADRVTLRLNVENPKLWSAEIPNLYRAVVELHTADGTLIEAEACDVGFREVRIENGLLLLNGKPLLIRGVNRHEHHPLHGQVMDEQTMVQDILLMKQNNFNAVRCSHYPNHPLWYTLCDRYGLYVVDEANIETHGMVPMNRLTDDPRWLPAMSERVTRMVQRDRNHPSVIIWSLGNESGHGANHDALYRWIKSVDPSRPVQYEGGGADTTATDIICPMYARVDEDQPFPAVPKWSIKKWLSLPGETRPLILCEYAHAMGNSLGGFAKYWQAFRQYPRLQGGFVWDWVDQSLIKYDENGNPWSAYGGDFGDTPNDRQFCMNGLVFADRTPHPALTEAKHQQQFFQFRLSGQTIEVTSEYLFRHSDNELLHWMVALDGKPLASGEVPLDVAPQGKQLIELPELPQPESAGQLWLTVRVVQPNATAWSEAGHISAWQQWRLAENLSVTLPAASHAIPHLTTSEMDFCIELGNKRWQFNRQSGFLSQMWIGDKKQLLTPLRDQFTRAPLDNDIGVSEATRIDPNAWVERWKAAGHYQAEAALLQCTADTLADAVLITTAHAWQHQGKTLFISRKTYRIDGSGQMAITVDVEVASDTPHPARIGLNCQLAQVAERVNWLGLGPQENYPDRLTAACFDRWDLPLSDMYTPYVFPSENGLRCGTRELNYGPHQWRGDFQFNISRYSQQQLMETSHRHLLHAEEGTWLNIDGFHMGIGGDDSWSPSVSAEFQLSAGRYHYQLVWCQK

For `CCCCCCCCCCCCCCCC(=O)OC(CC(=O)O)C[N+](C)(C)C` (stereo not drawn), the values for the AC50 in [1] and in data set [3] were 1.39 µM (active) and 35.5 µM (inconclusive), respectively. In data set [2], the CC50 was 23.7 µM (active).

In the case of `Cc1ccc(NP(=O)(c2ccccc2)c2nc3ccccc3s2)cc1` (stereo not drawn), the values for the IC50 (on Phosphomannomutase 2; in data set [4]) were > 100 µM (inactive) and > 50 µM (inactive), respectively.

As for `COc1ccc(OC)c(/C=C/C(=O)N2C(=O)c3cccc(N)c3C2=O)c1`, the IC50 in data set [5] and in data set [6] was > 66 µM (inactive) each time. For the same molecule, the AC50 in [7] was 26.6 µM (active); in [8] it was 3.25 µM (active); in data set [11], 58.5 µM (active). The EC50 in the data set with HEK293 [9] and in the data set on HEK293 [10] was > 59.7 µM (inactive) throughout.

For `CC(C)NC(=O)C1CC(=O)N(c2ccc(F)c(Cl)c2)C1` (stereo not drawn), the half-maximal activity concentration (AC50) result is “inconclusive” on Cytochrome P450 2C9, 2 µM (inconclusive) at Cytochrome P450 1A2 and 14.1 µM (inconclusive) at Cytochrome P450 2D6.

Turning to `COc1ccc(NC(=O)c2ccc(C)cc2Cl)c([N+](=O)[O-])c1`, the values for the AC50 at Cytochrome P450 2C19 and on Cytochrome P450 2C9 were 3.55 µM (inconclusive) and “inconclusive”, respectively.

`COc1cc(NC(=O)c2[nH]cnc2C(N)=O)cc(C(=O)Nc2cccc(C(F)(F)F)c2)c1`: the AC50 in data set [12] was 6.34 µM (active); with INS1, 3.48 µM (active); in data set [13], 10.9 µM (active); in the data set with A-375, 17 µM (active).

`O=C1Nc2ccc(Br)cc2/C1=C/C(=O)c1ccccc1`: the IC50 at Beta-galactosidase is > 66.6 µM (inactive). Also, the AC50 in data set [1] was 0.986 µM (active). In addition, the CC50 with Vero is 19.1 µM (active). Further, the EC50 in the data set on HEK293 [9] and in the data set on HEK293 [10] was > 59.6 µM (inactive) in each case.

On to `[Cl-].[Li+]` [CHLOROLITHIUM], for which the figures for the AC50 (at Cytochrome P450 3A4; in [3]) were 31.6 µM (inconclusive) and 6.31 µM (inconclusive), respectively.
